# Test results as given in patent US10702507B2, “Endoparasite control agent” (THE UNIVERSITY OF TOKYO, priority 2014, dated 2020).
# Tested on: 1st-stage larvae of Haemonchus contortus
# Experiment: Test for effect on motion of larvae of Haemonchus nematode
# Details: 20 larvae per well, 27° C./95% RH for 4 days, corrected against DMSO negative control, duplicate
# Procedure: Test for Effect on Motion of Larvae of Haemonchus Nematode (Haemonchus contortus) The compound of the present invention was prepared as solutions in 100% DMSO at the final concentrations of 50 ppm, 5 ppm, 0.5 ppm, 0.05 ppm and 0.005 ppm. DMSO stands for dimethyl sulfoxide. A larval suspension containing 1st-stage larvae of Haemonchus contortus harvested by the Baermann technique (for example, see K. Nakazono et al., “Inclination of Baermann funnel wall and efficiency of nematode extraction” Proc. Assoc. Pl. Prot. Kyushu 33: 126-130 (1987)) was placed at a density of 20 larvae per well in a test plate, and 0.5 μL/well of the test solution containing the compound of the present invention diluted to a predetermined concentration was added to the test plate. The plate was kept under the conditions of 27° C./95% RH for 4 days. In the test, ivermectin was used for the positive control and DMSO was used for the negative control. The motor ability of the larvae was examined with an automatic analyzer equipped with an LCD camera. The inhibitory effect on the motion of the larvae in each treatment plot was corrected based on the inhibitory effect in the plot treated with DMSO only for the negative control. The EC50 value was calculated from the data on the corrected inhibitory effect on the motion of the larvae, and graded according to the criteria shown below. The test was conducted in duplicate per plot.
row,Compound,"EC50 value of corrected inhibitory effect on the motion of the larvae, graded"
1,O=C(NCCc1ccc(Oc2ccccc2)cc1Cl)c1ccccc1I [Compound 1-39],C or higher
2,O=C(NCCc1ccc(Oc2ccc(C(F)(F)F)cc2)cc1Cl)c1ccccc1I [Compound 1-40],C or higher
3,CC(C)(CNC(=O)c1ccccc1C(F)(F)F)c1ccc(Oc2ncc(C(F)(F)F)cc2Cl)cc1Cl [Compound 1-44],C or higher
4,CC(C)(CNC(=O)c1ccccc1C(F)(F)F)c1ccc(Oc2ccc(C(F)(F)F)cn2)cc1Cl [Compound 1-45],C or higher
5,CC(C)(CNC(=O)c1ccccc1C(F)(F)F)c1ccc(Oc2ncc(Cl)cc2Cl)cc1Cl [Compound 1-46],C or higher
6,O=C(NCC1(c2ccc(Oc3ncc(C(F)(F)F)cc3Cl)cc2Cl)CC1)c1ccccc1C(F)(F)F [Compound 1-47],C or higher
7,O=C(NCC1(c2ccc(Oc3ccc(C(F)(F)F)cn3)cc2Cl)CC1)c1ccccc1C(F)(F)F [Compound 1-48],C or higher
8,O=C(NCC1(c2ccc(Oc3ncc(Cl)cc3Cl)cc2Cl)CC1)c1ccccc1C(F)(F)F [Compound 1-49],C or higher
9,O=C(NCCc1ccc(-c2ccc(C(F)(F)F)cc2)cc1Cl)c1ccccc1C(F)(F)F [Compound 1-50],C or higher
10,O=C(NCCc1ccc(-c2cccc(C(F)(F)F)c2)cc1Cl)c1ccccc1C(F)(F)F [Compound 1-51],C or higher
11,O=C(NCCc1ccc(-c2cc(F)cc(F)c2)cc1Cl)c1ccccc1C(F)(F)F [Compound 1-52],C or higher
12,COc1ccc(-c2ccc(CCNC(=O)c3ccccc3C(F)(F)F)c(Cl)c2)cc1 [Compound 1-53],C or higher
13,O=C(NCCc1ccc(-c2ccccc2)cc1Cl)c1ccccc1C(F)(F)F [Compound 1-54],C or higher
14,O=C(NCCc1ccc(-c2ccncc2)cc1Cl)c1ccccc1C(F)(F)F [Compound 1-55],C or higher
15,O=C(NCCc1ccc(-c2cccnc2)cc1Cl)c1ccccc1C(F)(F)F [Compound 1-56],C or higher
16,COC(CNC(=O)c1ccccc1C(F)(F)F)c1ccc(Oc2nc3ccccc3s2)cc1Cl (centres unmarked) [Compound 1-63],C or higher
17,COC(CNC(=O)c1ccccc1C(F)(F)F)c1ccc(Oc2ccc(C(F)(F)F)cc2)cc1Cl (centres unmarked) [Compound 1-65],C or higher
18,COC(CNC(=O)c1ccccc1C(F)(F)F)c1ccc(Oc2cccnc2)cc1Cl (centres unmarked) [Compound 1-67],C or higher
19,O=C(NCCc1ncc(-c2ccccc2)cc1Cl)c1ccccc1C(F)(F)F [Compound 2-1],C or higher
20,O=C(NCCc1ncc(-c2ccc(C(F)(F)F)cc2)cc1Cl)c1ccccc1C(F)(F)F [Compound 2-2],C or higher
21,O=C(NCCc1ncc(-c2cccc(C(F)(F)F)c2)cc1Cl)c1ccccc1C(F)(F)F [Compound 2-3],C or higher
22,O=C(NCCc1ncc(-c2cc(F)cc(F)c2)cc1Cl)c1ccccc1C(F)(F)F [Compound 2-4],C or higher
23,COc1ccc(-c2cnc(CCNC(=O)c3ccccc3C(F)(F)F)c(Cl)c2)cc1 [Compound 2-5],C or higher
